Assay results as given in patent US20250270209A1 (INTERLINE THERAPEUTICS, INC., priority 2022, published 2025).

Experiments:
LRRK2 wild type enzyme = LRRK2 wild type enzyme (Homo sapiens, UniProt Q5S007); assay: Biochemical Assay: LRRK2 TR-FRET (LanthaScreen) kinase assay with LRRKtide substrate; conditions: LRRK2 Inhibition, Table 8
Summary of the method: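 Human wild-type LRRK2 (3 nM) preincubated 15 min with compound (11-point, 3-fold, top 10 μM), then reacted 120 min at 23 °C with 400 nM LRRKtide and 25 μM ATP, pH 8.0. Stopped with EDTA; Tb-anti-pLRRKtide TR-FRET read after 30 min.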

[1] = target: T1, wild type LRRK2 overexpressed in recombinant HEK-293T cells (Homo sapiens, UniProt Q5S007); assay: pS935 LRRK2 Cell Assay (HTRF, phospho-LRRK2 Ser935); type: cell-based; conditions: LRRK2 Inhibition, Table 8, 2 hours compound incubation
T1 construct: host or cells: HEK293T (transient transfection with pCMV-LRRK2 WT plasmid)
T1 sequence (Q5S007 whole entry): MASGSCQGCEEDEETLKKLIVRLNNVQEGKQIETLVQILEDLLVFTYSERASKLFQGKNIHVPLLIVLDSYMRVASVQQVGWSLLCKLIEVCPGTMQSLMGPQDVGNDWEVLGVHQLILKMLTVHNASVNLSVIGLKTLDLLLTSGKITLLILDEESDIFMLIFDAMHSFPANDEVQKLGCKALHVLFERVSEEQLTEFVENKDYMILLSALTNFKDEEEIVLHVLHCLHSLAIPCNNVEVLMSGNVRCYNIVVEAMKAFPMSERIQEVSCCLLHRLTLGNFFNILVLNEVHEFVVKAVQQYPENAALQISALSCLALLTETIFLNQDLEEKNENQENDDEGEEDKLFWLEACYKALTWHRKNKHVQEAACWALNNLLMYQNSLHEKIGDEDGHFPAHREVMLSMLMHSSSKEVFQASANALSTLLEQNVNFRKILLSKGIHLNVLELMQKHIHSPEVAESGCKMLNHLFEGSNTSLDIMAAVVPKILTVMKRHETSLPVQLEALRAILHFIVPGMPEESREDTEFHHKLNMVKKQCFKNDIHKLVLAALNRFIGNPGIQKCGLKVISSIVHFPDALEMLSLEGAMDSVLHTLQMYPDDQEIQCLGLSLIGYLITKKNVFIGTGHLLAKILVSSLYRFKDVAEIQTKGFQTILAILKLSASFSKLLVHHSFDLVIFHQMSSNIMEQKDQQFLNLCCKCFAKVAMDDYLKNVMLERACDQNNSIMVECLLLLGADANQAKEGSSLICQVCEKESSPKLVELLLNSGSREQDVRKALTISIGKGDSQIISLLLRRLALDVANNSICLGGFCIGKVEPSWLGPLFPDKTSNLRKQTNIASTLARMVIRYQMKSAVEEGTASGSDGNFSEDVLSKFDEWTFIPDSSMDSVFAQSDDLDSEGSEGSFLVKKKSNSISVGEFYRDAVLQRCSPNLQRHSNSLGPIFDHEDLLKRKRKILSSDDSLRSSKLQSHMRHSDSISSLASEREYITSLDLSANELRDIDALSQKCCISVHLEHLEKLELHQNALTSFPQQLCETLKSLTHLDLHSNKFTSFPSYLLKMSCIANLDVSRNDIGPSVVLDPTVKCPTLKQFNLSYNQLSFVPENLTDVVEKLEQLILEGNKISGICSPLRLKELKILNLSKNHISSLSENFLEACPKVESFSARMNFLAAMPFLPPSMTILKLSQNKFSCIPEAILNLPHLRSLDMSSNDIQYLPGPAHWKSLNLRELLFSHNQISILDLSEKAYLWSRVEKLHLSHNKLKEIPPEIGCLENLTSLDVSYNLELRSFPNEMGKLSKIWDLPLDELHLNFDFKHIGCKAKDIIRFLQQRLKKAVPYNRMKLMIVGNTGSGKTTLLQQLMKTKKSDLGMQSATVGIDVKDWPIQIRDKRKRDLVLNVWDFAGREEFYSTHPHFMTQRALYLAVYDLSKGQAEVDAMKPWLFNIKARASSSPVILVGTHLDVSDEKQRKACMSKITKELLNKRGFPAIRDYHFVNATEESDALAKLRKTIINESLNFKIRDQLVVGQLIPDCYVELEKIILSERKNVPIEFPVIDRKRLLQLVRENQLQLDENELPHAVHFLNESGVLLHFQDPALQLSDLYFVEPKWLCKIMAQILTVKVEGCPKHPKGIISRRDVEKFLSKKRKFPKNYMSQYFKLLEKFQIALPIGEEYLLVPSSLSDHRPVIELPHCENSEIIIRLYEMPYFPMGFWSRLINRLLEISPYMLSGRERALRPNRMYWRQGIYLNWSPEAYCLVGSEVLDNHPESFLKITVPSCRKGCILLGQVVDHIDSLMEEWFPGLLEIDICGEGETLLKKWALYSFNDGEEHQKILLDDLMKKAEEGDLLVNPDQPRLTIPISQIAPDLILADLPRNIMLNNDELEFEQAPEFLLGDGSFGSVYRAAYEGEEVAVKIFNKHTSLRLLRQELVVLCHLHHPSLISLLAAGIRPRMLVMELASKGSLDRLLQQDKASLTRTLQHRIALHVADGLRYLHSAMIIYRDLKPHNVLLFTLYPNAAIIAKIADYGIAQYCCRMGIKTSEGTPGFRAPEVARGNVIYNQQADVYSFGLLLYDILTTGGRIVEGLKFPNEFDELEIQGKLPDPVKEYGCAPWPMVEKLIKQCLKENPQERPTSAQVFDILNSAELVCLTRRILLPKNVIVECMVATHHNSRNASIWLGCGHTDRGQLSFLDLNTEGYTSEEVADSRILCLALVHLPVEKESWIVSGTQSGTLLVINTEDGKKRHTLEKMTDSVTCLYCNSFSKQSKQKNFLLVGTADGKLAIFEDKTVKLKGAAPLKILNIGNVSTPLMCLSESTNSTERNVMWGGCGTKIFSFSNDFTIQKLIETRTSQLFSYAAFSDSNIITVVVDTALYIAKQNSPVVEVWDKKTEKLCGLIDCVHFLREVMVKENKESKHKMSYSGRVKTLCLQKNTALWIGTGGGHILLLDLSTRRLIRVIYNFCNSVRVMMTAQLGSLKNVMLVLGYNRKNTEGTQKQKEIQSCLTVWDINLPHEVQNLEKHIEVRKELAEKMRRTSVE
Summary of the method: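 HEK-293T cells transiently transfected with wild-type LRRK2 for 24 h, plated overnight, then treated 2 h at 37° C with compound (top 10 μM, 3-fold, 9 doses, duplicates, 0.2% DMSO). Lysates probed overnight at 23° C by sandwich HTRF for pSer935; 665/615 nm ratio read.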

LRRK2 wild type enzyme, sequence (Q5S007 whole entry): as above

Structure (SMILES) | IC50 (LRRK2 wild type enzyme) [nM] | IC50 [1] [nM]
Cc1oncc1NC(=O)Cc1nc2cnc3ccc(C#N)cc3c2n1[C@@H]1CCO[C@H](C)C1 [Compound 209, N-(5-methyl-4-isoxazolyl){3-[(2R,4R)-2-methyltetrahydro-2H-pyran-4-yl]-12-cyano-3,5,8-triazatricyclo[7.4.0.0^2,6]trideca-1,4,6,8,10,12-hexaen-4-yl}acetamide] | 0.427 | 13.2
COc1nc(C)ncc1NC(=O)Cc1nc2cnc3ccc(C#N)cc3c2n1[C@@H]1CCO[C@H](C)C1 [Compound 248, N-(4-methoxy-2-methyl-5-pyrimidinyl){3-[(2R,4R)-2-methyltetrahydro-2H-pyran-4-yl]-12-cyano-3,5,8-triazatricyclo[7.4.0.0^2,6]trideca-1(9),2(6),4,7,10,12-hexaen-4-yl}acetamide] | 0.4 | 4.2
C[C@@H]1C[C@H](n2c(CC(=O)NC3CCOCC3)nc3cnc4ccc(C#N)cc4c32)CCO1 [Compound 4, 2-{8-cyano-1-[(2R,4R)-2-methyloxan-4-yl]-1H-imidazo[4,5-c]quinolin-2-yl}-N-(oxan-4-yl)acetamide] | 0.551 | 57.5
C[C@@H]1C[C@H](n2c(CC(=O)Nc3cnc(C(F)(F)F)n(C)c3=O)nc3cnc4ccc(C#N)cc4c32)CCO1 [Compound 220, N-[1-methyl-6-oxo-2-(trifluoromethyl)-1,6-dihydro-5-pyrimidinyl]{3-[(2R,4R)-2-methyltetrahydro-2H-pyran-4-yl]-12-cyano-3,5,8-triazatricyclo[7.4.0.0^2,6]trideca-1,4,6,8,10,12-hexaen-4-yl}acetamide] | 0.447 | 4.25
C[C@@H]1C[C@H](n2c(CN3CCCS3(=O)=O)nc3cnc4ccc(C#N)cc4c32)CCO1 [Compound 75, 2-[(1,1-dioxo-126,2-thiazolidin-2-yl)methyl]-1-[(2R,4R)-2-methyloxan-4-yl]-1H-imidazo[4,5-c]quinoline-8-carbonitrile] | 11.1 | 590
C[C@@H]1C[C@H](n2c([C@H]3CC(=O)N(c4cnn(C)c4)C3)nc3cnc4ccc(C#N)cc4c32)CCO1 [Compound 47, 2-[(3S)-1-(1-methyl-1H-pyrazol-4-yl)-5-oxopyrrolidin-3-yl]-1-[(2R,4R)-2-methyloxan-4-yl]-1H-imidazo[4,5-c]quinoline-8-carbonitrile] | 141 | 9880
Cc1cnc(NC(=O)Cc2nc3cnc4ccc(C#N)cc4c3n2[C@@H]2CCO[C@H](C)C2)cn1 [Compound 315, N-(5-methyl-2-pyrazinyl){3-[(2R,4R)-2-methyltetrahydro-2H-pyran-4-yl]-12-cyano-3,5,8-triazatricyclo[7.4.0.0^2,6]trideca-1(9),2(6),4,7,10,12-hexaen-4-yl}acetamide] | 0.471 | 2.52
C[C@@H]1C[C@H](n2c(CC(=O)Nc3cccn(CCO)c3=O)nc3cnc4ccc(C#N)cc4c32)CCO1 [Compound 225, N-[1-(2-hydroxyethyl)-2-oxo-1,2-dihydro-3-pyridyl]{3-[(2R,4R)-2-methyltetrahydro-2H-pyran-4-yl]-12-cyano-3,5,8-triazatricyclo[7.4.0.0^2,6]trideca-1,4,6,8,10,12-hexaen-4-yl}acetamide] | 0.388 | 104
Cc1onc(NC(=O)Cc2nc3cnc4ccc(C#N)cc4c3n2[C@@H]2CCO[C@H](C)C2)c1C [Compound 356, N-(4,5-dimethyl-3-isoxazolyl){3-[(2R,4R)-2-methyltetrahydro-2H-pyran-4-yl]-12-cyano-3,5,8-triazatricyclo[7.4.0.0^2,6]trideca-1(9),2(6),4,7,10,12-hexaen-4-yl}acetamide] | 0.439 | 7.78
C[C@@H]1C[C@H](n2c(CC(=O)Nc3cccnn3)nc3cnc4ccc(C#N)cc4c32)CCO1 [Compound 168, 2-{8-cyano-1-[(2R,4R)-2-methyloxan-4-yl]-1H-imidazo[4,5-c]quinolin-2-yl}-N-(pyridazin-3-yl)acetamide] | 0.375 | 8.76
C[C@@H]1C[C@H](n2c(CNC(=O)c3cnn(C)c3)nc3cnc4ccc(C#N)cc4c32)CCO1 [Compound 20, N-({8-cyano-1-[(2R,4R)-2-methyloxan-4-yl]-1H-imidazo[4,5-c]quinolin-2-yl}methyl)-1-methyl-1H-pyrazole-4-carboxamide] | 1.83 | 224
C[C@@H]1C[C@H](n2c(CC(=O)Nc3cnc(C(F)(F)F)nc3)nc3cnc4ccc(C#N)cc4c32)CCO1 [Compound 321, N-[2-(trifluoromethyl)-5-pyrimidinyl]{3-[(2R,4R)-2-methyltetrahydro-2H-pyran-4-yl]-12-cyano-3,5,8-triazatricyclo[7.4.0.0^2,6]trideca-1(9),2(6),4,7,10,12-hexaen-4-yl}acetamide] | 0.66 | 25.2
C[C@@H]1C[C@H](n2c(CC(=O)NC3CC=CC3)nc3cnc4ccc(C#N)cc4c32)CCO1 [Compound 302, N-(3-cyclopenten-1-yl){3-[(2R,4R)-2-methyltetrahydro-2H-pyran-4-yl]-12-cyano-3,5,8-triazatricyclo[7.4.0.0^2,6]trideca-1,4,6,8,10,12-hexaen-4-yl}acetamide] | 0.483 | 10
C[C@@H]1C[C@H](n2c(CC(=O)Nc3ccn(C4COC4)n3)nc3cnc4ccc(C#N)cc4c32)CCO1 [Compound 346, N-[1-(3-oxetanyl)-3-pyrazolyl]{2-[(2R,4R)-2-methyltetrahydro-2H-pyran-4-yl]-12-cyano-3,5,8-triazatricyclo[7.4.0.0^2,6]trideca-1(9),2(6),4,7,10,12-hexaen-4-yl}acetamide] | 0.555 | 28.5
COc1nccnc1NC(=O)Cc1nc2cnc3ccc(C#N)cc3c2n1[C@@H]1CCO[C@H](C)C1 [Compound 312, N-(3-methoxy-2-pyrazinyl){3-[(2R,4R)-2-methyltetrahydro-2H-pyran-4-yl]-12-cyano-3,5,8-triazatricyclo[7.4.0.0^2,6]trideca-1(9),2(6),4,7,10,12-hexaen-4-yl}acetamide] | 0.574 | 5.68
N#Cc1ccc2ncc3nc(CC(=O)NCC4CC4)n(C4CCOCC4)c3c2c1 [Compound 343, N-cyclopropylmethyl{12-cyano-3-(tetrahydro-2H-pyran-4-yl)-3,5,8-triazatricyclo[7.4.0.0^2,6]trideca-1,4,6,8,10,12-hexaen-4-yl}acetamide] | 2.81 | 135
CN1CC(n2c(C3CC(=O)N(CC4CC4)C3)nc3cnc4ccc(C#N)cc4c32)CCC1=O (single isomer, unassigned) [Compound 140] | 42.1 | > 10000
C[C@@H]1C[C@H](n2c(CC(=O)Nc3cccnc3Cl)nc3cnc4ccc(C#N)cc4c32)CCO1 [Compound 324, N-(2-chloro-3-pyridyl){3-[(2R,4R)-2-methyltetrahydro-2H-pyran-4-yl]-12-cyano-3,5,8-triazatricyclo[7.4.0.0^2,6]trideca-1(9),2(6),4,7,10,12-hexaen-4-yl}acetamide] | 0.536 | 3.16
C[C@@H]1C[C@H](n2c(C3CC(=O)N(c4cnn(C)c4)C3)nc3cnc4ccc(C#N)cc4c32)CCO1 (mixture of isomers) [Compound 59, 2-[(3RS)-1-(1-methyl-1H-pyrazol-4-yl)-5-oxopyrrolidin-3-yl]-1-[(2R,4R)-2-methyloxan-4-yl]-1H-imidazo[4,5-c]quinoline-8-carbonitrile] | 1.06 | 118
